# Test results from PubChem BioAssay AID2060910 (Molecular Pharmacology Branch, DTP, NCI, 2025).
# Tested on: 242566-281-R-J2-PDC complex spheroid viability
# Assay: Anticancer human tumor 242566-281-R-J2-PDC patient-derived pancreatic carcinoma cell line growth inhibition [RAS]
# Conditions: for IC50: curve of first compound; for viability, T/C: stronger effect = lower value
# Summary of the method: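 Agents were tested in combination matrices in half-log decrements from a top concentration at or near clinical Cmax (10 microM if undetermined). Targets were multi-cell spheroids of tumour lines plus HUVEC and MSC stromal cells.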
# [1] = second compound 0.000949 µM, first compound 0.000949 µM
# [2] = second compound 0.000949 µM, first compound 0.003 µM
# [3] = second compound 0.000949 µM, first compound 0.00949 µM
# [4] = second compound 0.000949 µM, first compound 0.03 µM
# [5] = second compound 0.000949 µM, first compound 0.0949 µM
# [6] = second compound 0.000949 µM, first compound 0.3 µM
# [7] = second compound 0.003 µM, first compound 0.000949 µM
# [8] = second compound 0.003 µM, first compound 0.003 µM
# [9] = second compound 0.003 µM, first compound 0.00949 µM
# [10] = second compound 0.003 µM, first compound 0.03 µM
# [11] = second compound 0.003 µM, first compound 0.0949 µM
# [12] = second compound 0.003 µM, first compound 0.3 µM
# [13] = second compound 0.00949 µM, first compound 0.000949 µM
# [14] = second compound 0.00949 µM, first compound 0.003 µM
# [15] = second compound 0.00949 µM, first compound 0.00949 µM
# [16] = second compound 0.00949 µM, first compound 0.03 µM
# [17] = second compound 0.00949 µM, first compound 0.0949 µM
# [18] = second compound 0.00949 µM, first compound 0.3 µM
# [19] = second compound 0.03 µM, first compound 0.000949 µM
# [20] = second compound 0.03 µM, first compound 0.003 µM
# [21] = second compound 0.03 µM, first compound 0.00949 µM
# [22] = second compound 0.03 µM, first compound 0.03 µM
# [23] = second compound 0.03 µM, first compound 0.0949 µM
# [24] = second compound 0.03 µM, first compound 0.3 µM
# [25] = second compound 0.0949 µM, first compound 0.000949 µM
# [26] = second compound 0.0949 µM, first compound 0.003 µM
# [27] = second compound 0.0949 µM, first compound 0.00949 µM
# [28] = second compound 0.0949 µM, first compound 0.03 µM
# [29] = second compound 0.0949 µM, first compound 0.0949 µM
# [30] = second compound 0.0949 µM, first compound 0.3 µM
# [31] = second compound 0.3 µM, first compound 0.000949 µM
# [32] = second compound 0.3 µM, first compound 0.003 µM
# [33] = second compound 0.3 µM, first compound 0.00949 µM
# [34] = second compound 0.3 µM, first compound 0.03 µM
# [35] = second compound 0.3 µM, first compound 0.0949 µM
# [36] = second compound 0.3 µM, first compound 0.3 µM
# 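Also: spheroids exposed to compound for 7 days before readout.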
# 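For viability, T/C in this document: 100% = DMSO vehicle control wells.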
smiles,measurement,setting,value
C=CC(=O)N1CCN(c2nc(OCC3CCCN3C)nc3c(F)c(-c4nc(N)cc(C)c4C(F)(F)F)c(Cl)cc23)C(C)C1 (stereo unspecified) + CCn1c(-c2cc(N3CCN(C)CC3)cnc2C(C)OC)c2c3cc(ccc31)-c1csc(n1)CC(NC(=O)C1CC1C)C(=O)N1CCCC(N1)C(=O)OCC(C)(C)C2,IC50,second compound 0.000949 µM,> 1000 nM
same,IC50,second compound 0.003 µM,> 1000 nM
same,IC50,second compound 0.00949 µM,< 3.16 nM
same,IC50,second compound 0.03 µM,< 3.16 nM
same,IC50,second compound 0.0949 µM,< 3.16 nM
same,IC50,second compound 0.3 µM,< 3.16 nM
same,"viability, T/C","second compound 0.000949 µM, first compound 0.00316 µM",91.5%
same,"viability, T/C","second compound 0.000949 µM, first compound 0.01 µM",90.3%
same,"viability, T/C","second compound 0.000949 µM, first compound 0.0316 µM",69.8%
same,"viability, T/C","second compound 0.000949 µM, first compound 0.1 µM",96.7%
same,"viability, T/C","second compound 0.000949 µM, first compound 0.316 µM",86.9%
same,"viability, T/C","second compound 0.000949 µM, first compound 1 µM",59.6%
same,"viability, T/C","second compound 0.003 µM, first compound 0.00316 µM",80.6%
same,"viability, T/C","second compound 0.003 µM, first compound 0.01 µM",62.2%
same,"viability, T/C","second compound 0.003 µM, first compound 0.0316 µM",67.8%
same,"viability, T/C","second compound 0.003 µM, first compound 0.1 µM",70.5%
same,"viability, T/C","second compound 0.003 µM, first compound 0.316 µM",76.5%
same,"viability, T/C","second compound 0.003 µM, first compound 1 µM",51.7%
same,"viability, T/C","second compound 0.00949 µM, first compound 0.00316 µM",46.6%
same,"viability, T/C","second compound 0.00949 µM, first compound 0.01 µM",39.8%
same,"viability, T/C","second compound 0.00949 µM, first compound 0.0316 µM",44.3%
same,"viability, T/C","second compound 0.00949 µM, first compound 0.1 µM",47.3%
same,"viability, T/C","second compound 0.00949 µM, first compound 0.316 µM",43.1%
same,"viability, T/C","second compound 0.00949 µM, first compound 1 µM",41.3%
same,"viability, T/C","second compound 0.03 µM, first compound 0.00316 µM",33.7%
same,"viability, T/C","second compound 0.03 µM, first compound 0.01 µM",32.1%
same,"viability, T/C","second compound 0.03 µM, first compound 0.0316 µM",30.3%
same,"viability, T/C","second compound 0.03 µM, first compound 0.1 µM",30.5%
same,"viability, T/C","second compound 0.03 µM, first compound 0.316 µM",23.8%
same,"viability, T/C","second compound 0.03 µM, first compound 1 µM",26.9%
same,"viability, T/C","second compound 0.0949 µM, first compound 0.00316 µM",25.1%
same,"viability, T/C","second compound 0.0949 µM, first compound 0.01 µM",22.6%
same,"viability, T/C","second compound 0.0949 µM, first compound 0.0316 µM",23.1%
same,"viability, T/C","second compound 0.0949 µM, first compound 0.1 µM",24.5%
same,"viability, T/C","second compound 0.0949 µM, first compound 0.316 µM",20.1%
same,"viability, T/C","second compound 0.0949 µM, first compound 1 µM",26%
same,"viability, T/C","second compound 0.3 µM, first compound 0.00316 µM",21.6%
same,"viability, T/C","second compound 0.3 µM, first compound 0.01 µM",20.6%
same,"viability, T/C","second compound 0.3 µM, first compound 0.0316 µM",21.7%
same,"viability, T/C","second compound 0.3 µM, first compound 0.1 µM",20.6%
same,"viability, T/C","second compound 0.3 µM, first compound 0.316 µM",19.8%
same,"viability, T/C","second compound 0.3 µM, first compound 1 µM",20.2%
CC1(C)CCC(Nc2ncc(C(F)(F)F)c(-c3c[nH]c4c(P(C)(C)=O)c(C#N)ccc34)n2)CN1 (stereo unspecified) + CCn1c(-c2cc(N3CCN(C)CC3)cnc2C(C)OC)c2c3cc(ccc31)-c1csc(n1)CC(NC(=O)C1CC1C)C(=O)N1CCCC(N1)C(=O)OCC(C)(C)C2,IC50,second compound 0.000949 µM,> 300 nM
same,IC50,second compound 0.003 µM,> 300 nM
same,IC50,second compound 0.00949 µM,< 0.949 nM
same,IC50,second compound 0.03 µM,< 0.949 nM
same,IC50,second compound 0.0949 µM,< 0.949 nM
same,IC50,second compound 0.3 µM,< 0.949 nM
same,"viability, T/C",[1],101%
same,"viability, T/C",[2],98%
same,"viability, T/C",[3],73.5%
same,"viability, T/C",[4],88%
same,"viability, T/C",[5],85.3%
same,"viability, T/C",[6],61.3%
same,"viability, T/C",[7],81.6%
same,"viability, T/C",[8],69.6%
same,"viability, T/C",[9],63.8%
same,"viability, T/C",[10],67.8%
same,"viability, T/C",[11],68.3%
same,"viability, T/C",[12],48.8%
same,"viability, T/C",[13],49.6%
same,"viability, T/C",[14],39.9%
same,"viability, T/C",[15],45.5%
same,"viability, T/C",[16],39.3%
same,"viability, T/C",[17],35.5%
same,"viability, T/C",[18],36%
same,"viability, T/C",[19],30.7%
same,"viability, T/C",[20],32.9%
same,"viability, T/C",[21],30.2%
same,"viability, T/C",[22],27.8%
same,"viability, T/C",[23],19.6%
same,"viability, T/C",[24],27.2%
same,"viability, T/C",[25],22.5%
same,"viability, T/C",[26],24.8%
same,"viability, T/C",[27],21.6%
same,"viability, T/C",[28],21.6%
same,"viability, T/C",[29],19.4%
same,"viability, T/C",[30],23.6%
same,"viability, T/C",[31],21.6%
same,"viability, T/C",[32],19.4%
same,"viability, T/C",[33],21.3%
same,"viability, T/C",[34],17.5%
same,"viability, T/C",[35],18.6%
same,"viability, T/C",[36],18.3%
CCc1c2c(nc3ccc(O)cc13)-c1cc3c(c(=O)n1C2)COC(=O)[C@]3(O)CC + CCn1c(-c2cc(N3CCN(C)CC3)cnc2C(C)OC)c2c3cc(ccc31)-c1csc(n1)CC(NC(=O)C1CC1C)C(=O)N1CCCC(N1)C(=O)OCC(C)(C)C2,IC50,second compound 0.000949 µM,14.5 nM
same,IC50,second compound 0.003 µM,6.76 nM
same,IC50,second compound 0.00949 µM,< 0.949 nM
same,IC50,second compound 0.03 µM,< 0.949 nM
same,IC50,second compound 0.0949 µM,< 0.949 nM
same,IC50,second compound 0.3 µM,< 0.949 nM
same,"viability, T/C",[1],101%
same,"viability, T/C",[2],89%
same,"viability, T/C",[3],49.6%
same,"viability, T/C",[4],40.2%
same,"viability, T/C",[5],22.3%
same,"viability, T/C",[6],9.11%
same,"viability, T/C",[7],92.3%
same,"viability, T/C",[8],62.8%
same,"viability, T/C",[9],43.8%
same,"viability, T/C",[10],29.8%
same,"viability, T/C",[11],19.4%
same,"viability, T/C",[12],8.62%
same,"viability, T/C",[13],48.8%
same,"viability, T/C",[14],39.1%
same,"viability, T/C",[15],38.8%
same,"viability, T/C",[16],24.8%
same,"viability, T/C",[17],17.9%
same,"viability, T/C",[18],12.2%
same,"viability, T/C",[19],33%
same,"viability, T/C",[20],32.8%
same,"viability, T/C",[21],27%
same,"viability, T/C",[22],21.1%
same,"viability, T/C",[23],13.9%
same,"viability, T/C",[24],11.9%
same,"viability, T/C",[25],22.9%
same,"viability, T/C",[26],24.1%
same,"viability, T/C",[27],21.8%
same,"viability, T/C",[28],15.9%
same,"viability, T/C",[29],11.2%
same,"viability, T/C",[30],9.7%
same,"viability, T/C",[31],22.7%
same,"viability, T/C",[32],20.4%
same,"viability, T/C",[33],18.1%
same,"viability, T/C",[34],12.5%
same,"viability, T/C",[35],13.3%
same,"viability, T/C",[36],8.58%
